Assay results taken from patent US20110218199A1, “PYRIDONEAMIDE DERIVATIVES, THEIR MANUFACTURE AND USE AS PHARMACEUTICAL AGENTS” (priority 2007, published 2011).
pIC50: −log10 of the molar value.

Each molecule was assayed on HCT 116 cells (assay: CellTiter-Glo assay in HCT 116 cells (antiproliferative activity)). Conditions: Homo sapiens, HCT-116, 120 h, CellTiter-Glo cell viability, HCT 116 human colon carcinoma, 5 days (120 h) incubation.
Assay type: cell-based
Source text: Antiproliferative Activity:
CellTiter-Glo™ Assay in HCT 116 Cells:
The CellTiter-Glo™ Luminescent Cell Viability Assay (Promega) is a homogeneous method of determining the number of viable cells in culture based on quantitation of the ATP present, which signals the presence of metabolically active cells.
HCT 116 cells (human colon carcinoma, ATCC-No. CCl-247) were cultivated in RPMI 1640 medium with GlutaMAX• I (Invitrogen, Cat-No. 61870-010), 5% Fetal Calf Serum (FCS, Sigma Cat-No. F4135 (FBS)); 100 Units/ml penicillin/100 μg/ml streptomycin (=Pen/Strep from Invitrogen Cat. No. 15140). For the assay the cells were seeded in 384 well plates, 1000 cells per well, in the same medium. The next day the test compounds were added in various concentrations ranging from 30 μM to 0.0015 μM (10 concentrations, 1:3 diluted). After 5 days the CellTiter-Glo™ assay was done according to the instructions of the manufacturer (CellTiter-Glo™ Luminescent Cell Viability Assay, from Promega). In brief: the cell-plate was equilibrated to room temperature for approximately 30 minutes and than the CellTiter-Glo™ reagent was added. The contents were carefully mixed for 15 minutes to induce cell lysis. After 45 minutes the luminescent signal was measured in Victor 2, (scanning multiwell spectrophotometer, Wallac).
1st. Day: • Medium: RPMI 1640 with GlutaMAX™ I (Invitrogen, Cat-Nr. 61870), 5% FCS (Sigma Cat.-No. F4135), Pen/Strep (Invitrogen, Cat No. 15140). • HCT116 (ATCC-No. CC1-247): 1000 cells in 60 μl per well of 384 well plate (Greiner 781098, μClear-plate white) • After seeding incubate plates 24 h at 37° C., 5% CO2
2nd. Day: Induction (Treatment with Compounds, 10 Concentrations):
In order to achieve a final concentration of 30 μM as highest concentration 3.5 μl of 10 mM compound stock solution were added directly to 163 μl media. Then step e) of the dilution procedure described below, was followed.
In order to achieve the second highest to the lowest concentrations, a serial dilution with dilution steps of 1:3 was followed according to the procedure (a-e) as described here below: • a) for the second highest concentration add 10 μl of 10 mM stock solution of compound to 20 μl dimethylsulfoxide (DMSO) • b) dilute 8×1:3 (always 10 μl to 20 μl DMSO) in this DMSO dilution row (results in 9 wells with concentrations from 3333.3 μM to 0.51 μM) • c) dilute each concentration 1: 47.6 (3.5 μl compound dilution to 163 μl media) • d) add 10 μl of every concentration to 60 μl media in the cell plate resulting in final concentration of DMSO: 0.3% in every well and resulting in 10 final concentration of compounds ranging from 30 μM to 0.0015 μM. • Each compound is tested in triplicate. • Incubate 120 h (5 days) at 37° C., 5% CO2 […]
Add 30 μl CellTiter-Glo™ Reagent (prepared from CellTiter-Glo™ Buffer and CellTiter-Glo™ Substrate (lyophilized) purchased from Promega) per well, shake 15 minutes at room temperature incubate further 45 minutes at room temperature without shaking
Victor 2 scanning multiwell spectrophotometer (Wallac), Luminescence mode (0.5 sec/read, 477 nm) Determine IC50 using a non-linear curve fit (XLfit software (ID Business Solution Ltd., Guilford, Surrey, UK))

| Structure (SMILES) | pIC50 |
| --- | --- |
| O=C(Nc1ccc(N2CCOCC2)c(F)c1)c1c(NCCc2cccc(Cl)c2)cc[nH]c1=O [Example 2a, 4-[2-(3-Chloro-phenyl)-ethylamino]-2-oxo-1,2-dihydro-pyridine-3-carboxylic acid (3-fluoro-4-morpholin-4-yl-phenyl)-amide] | 4.82 to 6.30 |
| O=C(Nc1cccc(N2CCCC2)c1)c1c(NCCc2cccc(Cl)c2)cc[nH]c1=O [Example 2e, 4-[2-(3-Chloro-phenyl)-ethylamino]-2-oxo-1,2-dihydro-pyridine-3-carboxylic acid (3-pyrrolidin-1-yl-phenyl)-amide] | 4.82 to 6.30 |
| O=C(Nc1ccc(N2CCCC2)c(C(F)(F)F)c1)c1c(NCc2ccccn2)cc[nH]c1=O [Example 2j, 2-Oxo-4-[(pyridin-2-ylmethyl)-amino]-1,2-dihydro-pyridine-3-carboxylic acid (4-pyrrolidin-1-yl-3-trifluoromethyl-phenyl)-amide] | 4.82 to 6.30 |
| CN1CCN(c2ccc(NC(=O)c3c(NCc4ccccn4)cc[nH]c3=O)cc2F)CC1 [Example 2k, 2-Oxo-4-[(pyridin-2-ylmethyl)-amino]-1,2-dihydro-pyridine-3-carboxylic acid [3-fluoro-4-(4-methyl-piperazin-1-yl)-phenyl]-amide] | 4.82 to 6.30 |
| O=C(Nc1cccc(N2CCCCC2)c1)c1c(NCCc2cccc(Cl)c2)cc[nH]c1=O [Example 2n, 4-[2-(3-Chloro-phenyl)-ethylamino]-2-oxo-1,2-dihydro-pyridine-3-carboxylic acid (3-piperidin-1-yl-phenyl)-amide] | 4.82 to 6.30 |
| O=C(Nc1cccc(N2CCCCC2)c1)c1c(NCc2ccccn2)cc[nH]c1=O [Example 2o, 2-Oxo-4-[(pyridin-2-ylmethyl)-amino]-1,2-dihydro-pyridine-3-carboxylic acid (3-piperidin-1-yl-phenyl)-amide] | 4.82 to 6.30 |
| CN1CCN(c2ccc(NC(=O)c3c(NC[C@@H](O)c4cccc(Cl)c4)cc[nH]c3=O)cc2)CC1 [Example 2p, 4-[(S)-2-(3-Chloro-phenyl)-2-hydroxy-ethylamino]-2-oxo-1,2-dihydro-pyridine-3-carboxylic acid [4-(4-methyl-piperazin-1-yl)-phenyl]-amide] | 4.82 to 6.30 |
| CN1CCN(c2ccc(NC(=O)c3c(NCc4ccccn4)cc[nH]c3=O)cc2)CC1 [Example 2s, 2-Oxo-4-[(pyridin-2-ylmethyl)-amino]-1,2-dihydro-pyridine-3-carboxylic acid [4-(4-methyl-piperazin-1-yl)-phenyl]-amide] | 4.82 to 6.30 |
| CN(C)c1cccc(NC(=O)c2c(NC[C@@H](O)c3cccc(Cl)c3)cc[nH]c2=O)c1 [Example 2w, 4-[(S)-2-(3-Chloro-phenyl)-2-hydroxy-ethylamino]-2-oxo-1,2-dihydro-pyridine-3-carboxylic acid (3-dimethylamino-phenyl)-amide] | 4.82 to 6.30 |
| CC(=O)N1CCN(c2ccc(NC(=O)c3c(NCC(O)c4ccccc4)cc[nH]c3=O)cc2C(F)(F)F)CC1 (centres unmarked) [Example 3, 4-(2-Hydroxy-2-phenyl-ethylamino)-2-oxo-1,2-dihydro-pyridine-3-carboxylic acid[4-(4-acetyl-piperazin-1-yl)-3-trifluoromethyl-phenyl]-amide] | 4.82 to 6.30 |
| CN1CCN(c2ccc(NC(=O)c3c(NCCc4cccc(Cl)c4)cc[nH]c3=O)cc2F)CC1 [Example 4a, 4-[2-(3-Chloro-phenyl)-ethylamino]-2-oxo-1,2-dihydro-pyridine-3-carboxylic acid [3-fluoro-4-(4-methyl-piperazin-1-yl)-phenyl]-amide] | 4.82 to 6.30 |
| Cc1cccc(CCNc2cc[nH]c(=O)c2C(=O)Nc2cccc(N3CCN(C)CC3)c2)c1 [Example 4aa, 2-Oxo-4-(2-m-tolyl-ethylamino)-1,2-dihydro-pyridine-3-carboxylic acid [3-(4-methyl-piperazin-1-yl)-phenyl]-amide] | 4.82 to 6.30 |
| COc1ccccc1CCNc1cc[nH]c(=O)c1C(=O)Nc1cccc(N2CCN(C)CC2)c1 [Example 4ab, 4-[2-(2-Methoxy-phenyl)-ethylamino]-2-oxo-1,2-dihydro-pyridine-3-carboxylic acid [3-(4-methyl-piperazin-1-yl)-phenyl]-amide] | 4.82 to 6.30 |
| CN1CCN(c2cccc(NC(=O)c3c(NCCc4c[nH]c5ccccc45)cc[nH]c3=O)c2)CC1 [Example 4ae, 4-[2-(1H-Indol-3-yl)-ethylamino]-2-ozo-1,2-dihydro-pyridine-3-carboxylic acid [3-(4-methyl-piperazin-1-yl)-phenyl]-amide] | 4.82 to 6.30 |
| CN1CCN(c2ccc(NC(=O)c3c(NCCc4cccc(Cl)c4)cc[nH]c3=O)cc2)CC1 [Example 4b, 4-[2-(3-Chloro-phenyl)-ethylamino]-2-oxo-1,2-dihydro-pyridine-3-carboxylic acid [4-(4-methyl-piperazin-1-yl)-phenyl]-amide] | 4.82 to 6.30 |
| CN1CCN(c2ccc(NC(=O)c3c(NC[C@@H](O)c4ccccc4)cc[nH]c3=O)cc2F)CC1 [Example 4c, 4-[(S)-2-Hydroxy-2-phenyl-ethylamino]-2-oxo-1,2-dihydro-pyridine-3-carboxylic acid [3-fluoro-4-(4-methyl-piperazin-1-yl)-phenyl]-amide] | 4.82 to 6.30 |
| CC(=O)N1CCN(c2ccc(NC(=O)c3c(NC[C@@H](O)c4cccc(Cl)c4)cc[nH]c3=O)cc2C(F)(F)F)CC1 [Example 4d, 4-[(S)-2-(3-Chloro-phenyl)-2-hydroxy-ethylamino]-2-oxo-1,2-dihydro-pyridine-3-carboxylic acid [4-(4-acetyl-piperazin-1-yl)-3-trifluoromethyl-phenyl]-amide] | 5.90 |
| COc1ccc(NC(=O)c2c(NC[C@@H](O)c3cccc(Cl)c3)cc[nH]c2=O)cc1N1CCN(C)CC1 [Example 4i, 4-[(S)-2-(3-Chloro-phenyl)-2-hydroxy-ethylamino]-2-oxo-1,2-dihydro-pyridine-3-carboxylic acid [4-methoxy-3-(4-methyl-piperazin-1-yl)-phenyl]-amide] | 4.82 to 6.30 |
| O=C(Nc1cccc(N2CCOCC2)c1)c1c(NC[C@@H](O)c2cccc(Cl)c2)cc[nH]c1=O [Example 4m, 4-[(S)-2-(3-Chloro-phenyl)-2-hydroxy-ethylamino]-2-oxo-1,2-dihydro-pyridine-3-carboxylic acid (3-morpholin-4-yl-phenyl)-amide] | 4.82 to 6.30 |
| CS(=O)(=O)c1cccc(NC(=O)c2c(NC[C@@H](O)c3cccc(Cl)c3)cc[nH]c2=O)c1 [Example 4p, 4-[(S)-2-(3-Chloro-phenyl)-2-hydroxy-ethylamino]-2-oxo-1,2-dihydro-pyridine-3-carboxylic acid (3-methanesulfonyl-phenyl)-amide] | 4.82 to 6.30 |
| CSc1cccc(NC(=O)c2c(NC[C@@H](O)c3cccc(Cl)c3)cc[nH]c2=O)c1 [Example 4q, 4-[(S)-2-(3-Chloro-phenyl)-2-hydroxy-ethylamino]-2-oxo-1,2-dihydro-pyridine-3-carboxylic acid (3-methylsulfanyl-phenyl)-amide] | 4.82 to 6.30 |
| CN1CCN(c2cccc(NC(=O)c3c(NCCc4ccccc4)cc[nH]c3=O)c2)CC1 [Example 4v, 2-Oxo-4-phenethylamino-1,2-dihydro-pyridine-3-carboxylic acid [3-(4-methyl-piperazin-1-yl)-phenyl]-amide] | 4.82 to 6.30 |
| COc1cccc(CCNc2cc[nH]c(=O)c2C(=O)Nc2cccc(N3CCN(C)CC3)c2)c1 [Example 4y, 4-[2-(3-Methoxy-phenyl)-ethylamino]-2-oxo-1,2-dihydro-pyridine-3-carboxylic acid [3-(4-methyl-piperazin-1-yl)-phenyl]-amide] | 4.82 to 6.30 |
